Data set [1] concerns the target T1, MtUPRT (Mycobacterium tuberculosis, UniProt P9WFF3). The experiment in a line: Evaluation of nucleotides as allosteric effectors. To be noted: for activation or inhibition of MtUPRT: 500 µM nucleotide, 128 s. Format: biochemical.
The target in data set [2] is T1, MtUPRT. The experiment in a line: biochemical. The settings on record: for Kd: K d; for ΔG / ΔH / ΔS: reverse titration, 25°C. In kind it is binding.
The subject of data set [3] is UPRT from T. gondii. On the set-up: method as in PMID 11773618. To be noted: also stabilizes the more active tetrameric form; cited from earlier work.
For data set [4], the system named is E. coli UPRT. Also noted: method as in PMID 8856065. The settings on record: without affecting V max; cited from earlier work.
The subject of data set [5] is G. intestinalis UPRT. Also noted: method as in PMID 7622327. The settings on record: cited from earlier work.
For data set [6], the system named is S. solfataricus UPRT. Also noted: method as in PMID 15752360. To be noted: cited from earlier work.
Data set [7] has as its target T1, MtUPRT. The experiment in a line: Steady-state kinetics of MtUPRT, continuous spectrophotometric assay (uracil to UMP, 280 nm). Format: biochemical. The settings on record: for k cat/K (true steady-state) / true steady-state K (K PRPP, K uracil): initial velocity pattern, varying PRPP at fixed-varying uracil; for true steady-state K (K PRPP, K uracil): sequential mechanism fit.

Data set [8] has as its target MtUPRT:PRPP binary complex (Mycobacterium tuberculosis, UniProt P9WFF3). The experiment in a line: Isothermal titration calorimetry of GTP binding to PRPP bound enzyme. The settings on record: 10 mM GTP titrated; MtUPRT 139 µM incubated with 100 µM PRPP for 1 hour. The method, then: Furthermore, no binding of GTP either to the free enzyme or to the PRPP bound enzyme was detected by ITC (data not shown). The incubation of PRPP with MtUPRT prior to the titration of GTP was tested to determine whether the binding of PRPP to MtUPRT generates conformational changes on the enzyme that could enable GTP binding. However, no binding of GTP to MtUPRT:PRPP binary complex could be detected (data now shown).
ITC experiments were carried out using an iTC200 Microcalorimeter (MicroCal Inc). Ligands and enzyme were prepared in 100 mM Hepes pH 7.5 containing 10 mM MgCl2. For direct titrations the sample cell was filled with 139 µM of MtUPRT (200 µL) and titrated (39.7 µL) with different concentrations of either substrates or products: 200 µM of uracil, 500 µM of PRPP, 500 µM of UMP, and 350 µM of PPi. In addition, titration was performed with 10 mM of GTP and the sample cell was filled with either free MtUPRT (139 µM) or MtUPRT (139 µM) incubated with 100 µM PRPP for 1 hour before starting the measurements. Reverse titrations were also carried out where the sample cell was filled with either 90 µM of PRPP or 150 µM of UMP and titrated with 633 µM of UPRT.
A stirring speed of 500 rpm and a temperature of 25°C were employed for all ITC experiments. […] The experimental data were evaluated using the Origin 7 SR4 software (MicroCal).
(ITC needs no label: the signal is the heat of the interaction.)

In data set [9] the target is T1, MtUPRT. The experiment in a line: Evaluation of pyrimidine bases as substrates, discontinuous assay (HPLC, LC-ESI-MS/MS). Format: biochemical. To be noted: 0.1 mM base, 1 mM PRPP, 37°C 30 min, confirmed by LC-ESI-MS/MS. The method, then:
Uracil, thymine and cytosine pyrimidine bases were evaluated as possible MtUPRT substrates. The bases were added to MtUPRT reaction mixtures and protein separated by ultrafiltration, and product formation analyzed by HPLC monitoring absorbance at 254, 260, and 280 nm. […] The MtUPRT enzyme activity measurements henceforth described were carried out using uracil as substrate and a continuous spectrophotometric assay.
Reaction mixtures containing 50 mM Tris pH 7.8, 10 mM MgCl2, 1 mM PRPP, and 0.1 mM of the pyrimidine base to be tested (uracil, cytosine, or thymine) were initiated by the addition of 54 nM of homogeneous MtUPRT. The reactions were incubated at 37°C for 30 min and then boiled for 3 min to stop the reaction. The mixtures were passed through a Centricon (10,000 Da molecular weight cut off) to remove the protein content prior to analysis. The nucleotide contents of the samples were analyzed using an HPLC Äkta Purifier system and a Sephasil peptide C18 5 µm ST 4.6/250 column. A 500 µL aliquot of each sample was loaded on the column and adsorbed material isocratically eluted with 5 mM potassium phosphate pH 4.0 containing 5% acetonitrile for 10 min at 1 mL min^−1flow rate. Nucleotides and bases were monitored at 254, 260, and 280 nm.
Another method used to analyze the nucleotide content was the LC-ESI-MS/MS. This experiment was employed to confirm results obtained in the analysis described above. The chromatography was carried out with an Eclipse plus C18 4.6/150 column (Agilent). The injected sample volume was 20 µL, which was eluted isocratically with 10 mM ammonium acetate containing 40% acetonitrile at 0.8 ml min^−1 flow rate. The LC detector was an ESI coupled to the 3200 Q-Trap (Applied Biosystems MDS SCIEX), employing the ESI-MS/MS parameters as described by others. During the chromatography run, precursor ion scan (Prec) and enhance product ion scan (EPI) were monitored. Prec monitored precursors of mass over charge ratio (m/z) of compounds containing a phosphate group (H2PO4 ^−, m/z 97) and EPI gave the fragmentation spectra of the nucleotides m/z.

Data set [10] has as its system B. caldolyticus UPRT. On the set-up: method as in PMID 9268683. To be noted: hyperbolic saturation curve; cited from earlier work.
Data set [11] deals with the molecule itself. The experiment in a line: AUC.
[12] abbreviates: in the presence of 100 µM GTP, uracil variable substrate, PRPP 350 µM.
Where [13] appears, read: uracil variable substrate, fixed-saturating PRPP 350 µM.
Where [14] appears, read: PRPP variable substrate, fixed-saturating uracil 35 µM.
[15] abbreviates: in the presence of 100 µM GTP, PRPP variable substrate, uracil 35 µM.

Where “and” joins values, the source holds several entries; their conditions need not be identical. Equal values may be shown once.

For `Nc1nc2c(ncn2[C@@H]2O[C@H](COP(=O)(O)OP(=O)(O)OP(=O)(O)O)[C@@H](O)[C@H]2O)c(=O)[nH]1` [GTP, guanosine 5′-triphosphate], the “activation or inhibition of MtUPRT” value in [1] (350 µM PRPP, 35 µM uracil) is reported as “not significantly activated or inhibited”. Besides, the “binding to free MtUPRT enzyme (heat changes)” value in data set [2] is “no binding”. For the same molecule, the “effect of GTP on activity” value in data set [3] was “activated by GTP”; in [5] it was “dramatic increase in the activity”. For the same molecule, the “effect of GTP on kinetic parameters” value in data set [4] is “lowered the K M value for PRPP”. Moreover, the “effect of GTP on k cat and K M for PRPP and uracil” value in data set [6] is “increase k cat and K M values”. In [7] (100 µM GTP), the “effect on kinetic parameters for MtUPRT” value is “not affected”. In addition, the “binding to MtUPRT:PRPP binary complex” value in [8] is on record as “no binding”.
As to `O=c1cc[nH]c(=O)[nH]1` [uracil], the “substrate activity (product formation)” value in [9] is “specific for uracil”. The “K M for uracil” value in data set [10] is recorded as 2 µM. The “binding to free MtUPRT enzyme (heat changes)” value in data set [2] is reported as “no significant heat changes”. Further, in [7] (setting [12]), the “K 0.5” value is 2.9 ± 0.1 µM, the “apparent V max” value came to 1.54±0.02 U mg^−1, the apparent k cat is 0.57 ± 0.01 s⁻¹ and the “n (Hill coefficient)” value amounted to 2.2±0.1. In addition, in data set [7], the “k cat/K (true steady-state)” value was 2.2 (±0.3)×10^5 M^−1 s^−1 and the “true steady-state K (K PRPP, K uracil)” value stood at 2.6 ± 0.4 µM. Also, in data set [7] (setting [13]), the “apparent V max” value stood at 1.73±0.03 U mg^−1, the apparent k cat was determined as 0.64 ± 0.01 s⁻¹ and the “n (Hill coefficient)” value was 1.9±0.1. Moreover, the “K 0.5” value in [7] (uracil variable substrate, fixed-saturating PRPP 350 µM, Hill fit) was found to be 3.6 ± 0.1 µM.
Regarding `Nc1ncnc2c1ncn2[C@@H]1O[C@H](COP(=O)(O)OP(=O)(O)OP(=O)(O)O)[C@@H](O)[C@H]1O` [ATP, adenosine 5′-triphosphate], in [1] (350 µM PRPP, 35 µM uracil), the “activation or inhibition of MtUPRT” value is reported as “not significantly activated or inhibited”.
Consider `Nc1ccn([C@@H]2O[C@H](COP(=O)(O)OP(=O)(O)OP(=O)(O)O)[C@@H](O)[C@H]2O)c(=O)n1` [CTP, cytidine 5′-triphosphate], for which the “effect on UMP inhibition of MtUPRT” value in [1] (500 µM CTP together with 100 µM UMP) is given as “no increase in UMP inhibition occurred”. Moreover, the “activation or inhibition of MtUPRT” value in [1] (350 µM PRPP, 35 µM uracil) is “not significantly activated or inhibited”. The “effect of CTP on activity” value in data set [6] (in the presence of UMP) was “inhibited the enzyme”.
As for `Cc1c[nH]c(=O)[nH]c1=O` [thymine], the “substrate activity (product formation)” value in [9] is recorded as “no product formation could be detected”.
For the molecule `Nc1cc[nH]c(=O)n1` [cytosine], the “substrate activity (product formation)” value in [9] was “no product formation could be detected”.
With `O=c1ccn([C@@H]2O[C@H](COP(=O)(O)O)[C@@H](O)[C@H]2O)c(=O)[nH]1` [UMP, uridine 5′-monophosphate], the “inhibition of MtUPRT” value in data set [1] (100 µM UMP, 350 µM PRPP, 35 µM uracil) is “enzyme inhibition was observed”. The Kd (as a rule, the equilibrium constant for the complex coming apart) in data set [2] was 7 µM and 8 µM and 13 µM and 14 µM. Also, the ΔG is -29 ± 8.4 kJ/mol in data set [2] (Subunit 1), -29 ± 8.4 kJ/mol in data set [2] (Subunit 2), -29 ± 13 kJ/mol in [2] (Subunit 3) and -29 ± 8.4 kJ/mol in [2] (Subunit 4). For the same molecule, the ΔH in [2] (Subunit 1) is -21.3 ± 1.7 kJ/mol; in data set [2] (Subunit 2), 25 ± 13 kJ/mol; in data set [2] (Subunit 3) it was -100 ± 46 kJ/mol; in data set [2] (Subunit 4) it was 117 ± 75.3 kJ/mol. For the same molecule, the ΔS is on record as 5±1 cal mol^−1 deg^−1 in [2] (Subunit 1), 45±16 cal mol^−1 deg^−1 in data set [2] (Subunit 2), −56±21 cal mol^−1 deg^−1 in data set [2] (Subunit 3) and 117±43 cal mol^−1 deg^−1 in [2] (Subunit 4).
Turning to `O=P(O)(O)OP(=O)(O)O` [PPi, pyrophosphate], the “binding to free MtUPRT enzyme (heat changes)” value in [2] is given as “no significant heat changes”.
Turning to `O=P(O)(O)OC[C@H]1O[C@H](OP(=O)(O)OP(=O)(O)O)[C@H](O)[C@@H]1O` [PRPP, 5-phosphoribosyl-α-1-pyrophosphate], the Kd in data set [2] was 5 µM and 48 µM and 6 µM and 9 µM. Also, the ΔG in data set [2] (Subunit 1) is -29 ± 4.2 kJ/mol; in data set [2] (Subunit 2) it was -25 ± 8.4 kJ/mol; in data set [2] (Subunit 3), -29 ± 8.4 kJ/mol; in data set [2] (Subunit 4) it was -29 ± 13 kJ/mol. Further, the ΔH in data set [2] (Subunit 1) was 11.7 ± 1.3 kJ/mol; in data set [2] (Subunit 2), -13 ± 66.9 kJ/mol; in data set [2] (Subunit 3) it was -172 ± 134 kJ/mol; in [2] (Subunit 4), 243 ± 92 kJ/mol. The ΔS is given as 34±6 cal mol^−1 deg^−1 in [2] (Subunit 1), 10±3 cal mol^−1 deg^−1 in [2] (Subunit 2), −114±33 cal mol^−1 deg^−1 in data set [2] (Subunit 3) and 217±85 cal mol^−1 deg^−1 in data set [2] (Subunit 4). Further, the K a in data set [2] (pH 7.5) was 2.0 (±3.6)×10^5 M^−1 and 2.1 (±0.6)×10^4 M^−1 and 1.6 (±0.5)×10^5 M^−1 and 1.1 (±0.4)×10^5 M^−1. Also, the “apparent V max” value in data set [7] (setting [14]) was 1.75±0.02 U mg^−1; in data set [7] (setting [15]), 1.60±0.04 U mg^−1. Moreover, the apparent k cat in [7] (setting [14]) is 0.65 ± 0.01 s⁻¹; in [7] (setting [15]), 0.59 ± 0.01 s⁻¹. Further, the “apparent K M” value in data set [7] (PRPP variable substrate, fixed-saturating uracil 35 µM, Michaelis-Menten fit) came to 12.4 ± 0.6 µM; in data set [7] (setting [15]) it was 17 ± 2 µM. The “k cat/K (true steady-state)” value in [7] was 4.1 (±0.2)×10^4 M^−1 s^−1. For the same molecule, the “true steady-state K (K PRPP, K uracil)” value in [7] is 14 ± 1 µM.
On to `O=c1ccn([C@@H]2O[C@H](COP(=O)(O)OP(=O)(O)OP(=O)(O)O)[C@@H](O)[C@H]2O)c(=O)[nH]1` [UTP, uridine 5′-triphosphate], for which the “activation or inhibition of MtUPRT” value in data set [1] (350 µM PRPP, 35 µM uracil) is “not significantly activated or inhibited”.

B1: Uracil phosphoribosyltransferase from Mycobacterium tuberculosis (enzyme)
chain: MQVHVVDHPLAAARLTTLRDERTDNAGFRAALRELTLLLIYEATRDAPCEPVPIRTPLAETVGSRLTKPPLLVPVLRAGLGMVDEAHAALPEAHVGFVGVARDEQTHQPVPYLDSLPDDLTDVPVMVLDPMVATGGSMTHTLGLLISRGAADITVLCVVAAPEGIAALQKAAPNVRLFTAAIDEGLNEVAYIVPGLGDAGDRQFGPR
notes: also called MtUPRT; UPRT
Consider B1, for which, in data set [11], the Kd was about 1 µM and the stoichiometry N (usually a count of units in the complex or per binding partner) was determined as 4.

The record behind these values is article PMC3570474, “Biochemical Characterization of Uracil Phosphoribosyltransferase from Mycobacterium tuberculosis” (PLoS ONE, 2013).
